According to patent publication US20110059869A1, “Method for Increasing Enzymatic Reactivity” (RIKEN, priority 2008, published 2011):

Assays:
Format in all cases: biochemical
restriction enzyme PstI = test: PstI cleavage reaction in solution (DNA fragment III); conditions: normal reaction solution, with vs without 0.6 M trehalose; three hours
Method: Biotin-labeled DNA fragment III (Seq. ID No. 6, Scheme 4) was cleaved at the restriction enzyme PstI site in solution and the 104 by DNA fragment that was released was examined. Two forms of reaction solution (DNA fragment III 500 ng, 1× PSTI buffer, 1× BSA, restriction enzyme 40 units) were prepared: a total of 50 uL trehalose (+) reaction solution to which D(+)-trehalose was added to a final concentration of 0.6 M, and a total of 50 uL trehalose (−) reaction solution, to which no trehalose was added. The reaction solutions were reacted for 3 hours at 37° C., a proteinase K reaction was conducted, phenol chloroform treatment was carried out, and precipitation from ethanol was conducted. The precipitate of the DNA fragment obtained was dissolved in 1× TE (pH 7.5) and analyzed with Bioanalyzer DNA 1000 assay (Agilent Technologies).

[1] = test system: ligation enzymatic reaction solution of a SOLID system 2.0; test: Sequencing reaction in a SOLID sequencing system; conditions: 0.3 M trehalose vs none
Method: D(+)-trehalose was added to the ligation enzymatic reaction solution of a SOLID system 2.0 and the effects were measured. The experiment was conducted at a final D(+)-trehalose concentration of 0.3 M. The noise to signal ratio (N/S ratio) of each cycle was employed for comparison. The N/S ratio was obtained by dividing the second brightest fluorescence intensity by the brightest fluorescence intensity.
The D(+)-trehalose employed was D(+)-trehalose dihydrate (201-02253 reagent grade) (Wako). A SOLiD™ fragment library sequencing kit v2 (4400466) was employed for sequencing with the SOLID system (Applied Biosystems). The sample employed as a SOLiD™ DH10B fragment library control kit (4391889).
Probe Mixes A and B and bridge probe, prepared with the reagents contained in a SOLiD™ fragment library sequence kit v2 (4400466) and adjusted to a D(+)-trehalose (90208 BioChemika, 99.5% (HPLC)) (Fluka) concentration of 1.7 M, were added to each sequence primer in the quantities indicated below.
The operation was conducted according to the manufacturer's protocol following addition.

[2] = test system: sequencing enzyme reaction solution of a Genome Sequencer FLX system; test: Sequencing reaction of the 454 sequencing system (Genome Sequencer FLX); conditions: trehalose 0.15 M and 0.3 M in sequencing reaction vs none
Method: In the 454 sequencing system described in 11 above, trehalose was added to the reaction solution to a final concentration of 0.3 M, the sequencing reaction was conducted, and the effect on the sequencing level was observed.
D(+)-trehalose was added to the sequencing enzyme reaction solution of a Genome Sequencer FLX system and the effects were measured. Two experiments were conducted with final D(+)-trehalose concentrations of 0.15 M and 0.3 M. The ratio of the read length to the decodable sample was employed for comparison.
The D(+)-trehalose employed was D(+)-trehalose dihydrate (201-02253 reagent grade) (Wako). A GS LR 25 Sequencing Kit (502906) was employed for sequencing with the Genome Sequencer FLX system. The samples employed here were a PolyA minus full length cDNA library prepared in-house and human genome prepared according to the manufacturer's protocol.
The D(+)-trehalose dihydrate (201-02253 reagent grade) (Wako) was added in the following proportion to the Buffer CB among the reagents contained in the GS LR 25 Sequencing Kit (502906).
The mixture was stirred with a magnetic stirrer. Once dissolution had been visually confirmed, the mixed solution was passed through a filter (filter pore system 0.22 micrometer). Following filtration, precisely the required 2× 1000 mL quantities were collected from the mixed solution. […]

DNA polymerase = test: Solexa sequencing system, cluster amplification reaction on DNA-immobilized chip; conditions: for num of CAGE tag / num of sequence read: trehalose 0.6 M in cluster amplification
Method: The Solexa sequencing system incorporates the steps of adsorbing, immobilizing, and amplifying a DNA template on a flat chip. An examination was conducted to see how the sequence analysis level would change due to the addition of trehalose in the template amplification reaction of the Solexa sequencing system.
In the process of the Solexa sequencing system, attention was focused on the cluster amplification reaction conducted on a DNA-immobilized chip. In this reaction, DNA immobilized on the chip was amplified with DNA polymerase to obtain identical fragments referred to as a cluster (Scheme 9). Amplification was conducted by adding trehalose to the reaction solution to a final concentration of 0.6 M, and a comparison was made with the results obtained when no trehalose was added (FIG. 10). The sample employed here was a 27 by DNA fragment that had been prepared by the CAGE method (obtained by cleaving just 27 by off of the 5′ end of cDNA).
In the same manner as in 10 above, trehalose was added to a final concentration of 0.3 M to a reaction solution and amplification was conducted in a Solexa sequencing system. The results were compared to those obtained when no trehalose was added. The samples employed, prepared by the CAGE method (obtained by cleaving just 27 by off the 5′ end of the cDNA), were different 27 by DNA fragments than those in 10 above.

[3] = 0.3 M trehalose in cluster amplification vs none

## OC[C@H]1O[C@H](O[C@H]2O[C@H](CO)[C@@H](O)[C@H](O)[C@H]2O)[C@H](O)[C@@H](O)[C@@H]1O [trehalose, D(+)-trehalose]
Restriction enzyme PstI
  yield of released DNA fragment: the same yield
[1]
  noise to signal ratio (N/S ratio) with each cycle: reduced the rise in noise
[2]
  number of sequences: increased the number of sequences
DNA polymerase; [3]
  fluorescence intensity of each base in the CAGE samples: higher level of fluorescence intensity
  sequence level: increased
DNA polymerase; 0.6 M trehalose vs none
  length of the sequence that was determined: increased
  regions prepared by the CAGE method (CAGE tag) among DNA fragments analyzed: more regions prepared by the CAGE method (the CAGE tag) were contained
DNA polymerase; 0.6 M trehalose, data not shown
  fluorescence intensity of each base: strongly displayed
DNA polymerase; region s1
  num of CAGE tag: 196840
  num of sequence read: 252820
DNA polymerase; region s2
  num of CAGE tag: 421412
  num of sequence read: 523387
DNA polymerase; region s3
  num of CAGE tag: 540268
  num of sequence read: 648786
DNA polymerase; region s5
  num of CAGE tag: 317440
  num of sequence read: 392534
DNA polymerase; region s6
  num of CAGE tag: 627739
  num of sequence read: 728614
DNA polymerase; region s7
  num of CAGE tag: 798438
  num of sequence read: 904101
DNA polymerase; total of regions
  num of CAGE tag: 2902137
  num of sequence read: 3450242
